For data set [1], the system named is human red blood cells (hRBC). The format is cell-based. The note with it: red cells of human, 1 h, 0.2 g/L. As to the method:
(§1) Lyophilized peptides were weighed on a Microbalance (Mettler MT5) and dissolved in sterile water to a final concentration of 1 mg/mL. Stock solutions were kept at +4° C., light protected.
The peptides were tested for their hemolytic activity against human red blood cells (hRBC). Fresh hRBC were washed three times with phosphate buffered saline (PBS) and centrifuged for 5 min at 3000×g. Compounds (200 μg/mL) were incubated with 20% hRBC (v/v) for 1 h at 37° C. and shaking at 300 rpm. A value of 0% and 100% cell lyses, respectively, was determined by incubation of hRBC in the presence of PBS and 2.5% Triton X-100 in H2O, respectively. The samples were centrifuged, the supernatants were 8-fold diluted in PBS buffer and the optical densities (OD) were measured at 540 nm. The 100% lyses value (OD540H2O) gave an OD540 of approximately 0.5-1.0.
Percent hemolysis was calculated as follows: (OD540peptide/OD540H2O)×100%.

Data set [2] deals with Escherichia coli ATCC 25922. As to the method:
as §1
(§2) Colonies of the microorganisms were diluted in saline (0.85%, NaCl) and adjusted using a McFarland reader (bioMérieux SA, Marcy-l'Etoile, France) to 0.5 McFarland standard. Subsequently, the bacterial suspension was diluted in Mueller-Hinton II (MHII, cation adjusted) broth to give approximately 5×10^5 colony forming units (CFU/mL).
(§3) 10^6 colony forming units (CFU)/mL. Aliquots (90 μl) of inoculate were added to 10 μl of water+P-80 (Polysorbate 80, 0.002% final concentration) containing the peptide in serial two-fold dilutions at 10 fold final concentration. The following microorganisms were used to determine antibiotic selectivity of the peptides: Escherichia coli ATCC 25922, Escherichia coli MCR-1 Af 45 and Klebsiella pneumoniae SSI3010.

In data set [3] the test system is Klebsiella pneumoniae SSI3010. The protocol: as §1, §2, §3
The test system of data set [4] is Escherichia coli MCR-1 Af 45. The conditions noted are these: Mueller-Hinton broth II, no visible growth after 18-20 hours at 35° C. The protocol: as §1, §2, §3
The mark [5] stands for this setting: Mueller-Hinton broth II, no visible growth after 18-20 hours at 35° C.

Like-named read-outs stand apart in the source and are kept apart here. Where a SMILES comes first, the peptide text is derived from it.

On to `CCCC[C@H](NC(=O)[C@H](CCCNC(=N)N)NC(=O)[C@H](CCN)NC(=O)[C@@H]1CSSC(C)(C)[C@H](NC(=O)[C@H](Cc2ccc(O)cc2)NC(=O)[C@@H](NC(=O)[C@@H](NC(=O)[C@@H]2C[C@@H](N)CN2C(=O)[C@@H](N)C(C)C)[C@@H](C)CC)[C@@H](C)CC)C(=O)N[C@@H](CC(N)=O)C(=O)N[C@@H](CCCNC(=N)N)C(=O)N[C@@H](CCCNC(=N)N)C(=O)N[C@@H]([C@@H](C)O)C(=O)N[C@H](CCN)C(=O)N[C@@H](CCCCN)C(=O)N1)C(=O)O` [Example 2, Val-Pro((4R)NH2)-Ile-Ile-Tyr-Pen-Asn-Arg-Arg-Thr-^DDab-Lys-Cys-Dab-Arg-Nle] (HELM PEPTIDE1{V.[N[C@@H]1C[C@@H](C(=O)[*:2])N([*:1])C1].I.I.Y.[Pen].N.R.R.T.[NCC[C@@H](N[*:1])C(=O)[*:2]].K.C.[Dab].R.[Nle]}$PEPTIDE1,PEPTIDE1,6:R3-13:R3$$$V2.0), for which, in data set [1], the “Hemolysis at 0.2 g/L” value turned out to be 0%. In data set [2] (setting [5]), the “Escherichia coli ATCC 25922 MIC” value was 0.0625 µg/mL. Moreover, the “Klebsiella pneumoniae SSI3010 MIC” value in data set [3] (setting [5]) was found to be 0.125 µg/mL.

Take `CC[C@H](C)[C@H](NC(=O)[C@@H](NC(=O)[C@@H]1CCCN1C(=O)[C@@H](N)C(C)C)[C@@H](C)CC)C(=O)N[C@@H](Cc1ccc(O)cc1)C(=O)N[C@@H]1C(=O)N[C@@H](CC(N)=O)C(=O)N[C@@H](CCCNC(=N)N)C(=O)N[C@@H](CCN)C(=O)N[C@@H]([C@@H](C)O)C(=O)N[C@H](CCN)C(=O)N[C@@H](CCCCN)C(=O)N[C@H](C(=O)N[C@@H](CCN)C(=O)N[C@@H](CCCNC(=N)N)C(=O)N[C@@H](Cc2ccc(O)cc2)C(=O)O)CSSC1(C)C` [Example 7, Val-Pro-Ile-Ile-Tyr-Pen-Asn-Arg-Dab-Thr-^DDab-Lys-Cys-Dab-Arg-Tyr] (HELM PEPTIDE1{V.P.I.I.Y.[Pen].N.R.[Dab].T.[NCC[C@@H](N[*:1])C(=O)[*:2]].K.C.[Dab].R.Y}$PEPTIDE1,PEPTIDE1,6:R3-13:R3$$$V2.0): in data set [1], the “Hemolysis at 0.2 g/L” value is 0%. In data set [2] (setting [5]), the “Escherichia coli ATCC 25922 MIC” value turned out to be 0.0625 µg/mL. Further, the “Klebsiella pneumoniae SSI3010 MIC” value in data set [3] (setting [5]) amounted to 0.125 µg/mL.

Turning to `CC[C@H](C)[C@H](NC(=O)[C@@H](NC(=O)[C@@H]1C[C@@H](O)CN1C(=O)[C@@H](N)C(C)C)[C@@H](C)CC)C(=O)N[C@@H](Cc1ccc(O)cc1)C(=O)N[C@@H]1C(=O)N[C@@H](CC(N)=O)C(=O)N[C@@H](CCCNC(=N)N)C(=O)N[C@@H](CCN)C(=O)N[C@@H]([C@@H](C)O)C(=O)N[C@H](CCN)C(=O)N[C@@H](CCCCN)C(=O)N[C@H](C(=O)N[C@@H](CCN)C(=O)N[C@@H](CCCNC(=N)N)C(=O)N[C@@H](Cc2ccc(O)cc2)C(=O)O)CSSC1(C)C` [Example 14, Val-Hyp-Ile-Ile-Tyr-Pen-Asn-Arg-Dab-Thr-^DDab-Lys-Cys-Dab-Arg-Tyr] (HELM PEPTIDE1{V.[Hyp].I.I.Y.[Pen].N.R.[Dab].T.[NCC[C@@H](N[*:1])C(=O)[*:2]].K.C.[Dab].R.Y}$PEPTIDE1,PEPTIDE1,6:R3-13:R3$$$V2.0), the “Hemolysis at 0.2 g/L” value in data set [1] stood at 0%. Also, the “Escherichia coli ATCC 25922 MIC” value in data set [2] (setting [5]) came to 0.125 µg/mL. Also, in data set [3] (SSI3010), the “Klebsiella pneumoniae SSI3010 MIC” value was 0.25 µg/mL.

`CC[C@H](C)[C@H](NC(=O)[C@@H](NC(=O)[C@@H]1CCCN1C(=O)[C@@H](NC(=N)N)C(C)C)[C@@H](C)CC)C(=O)N[C@@H](Cc1ccc(O)cc1)C(=O)N[C@@H]1C(=O)N[C@@H](CC(N)=O)C(=O)N[C@@H](CCCNC(=N)N)C(=O)N[C@@H](CCN)C(=O)N[C@@H]([C@@H](C)O)C(=O)N[C@H](CCN)C(=O)N[C@@H](CCCCN)C(=O)N[C@H](C(=O)N[C@@H](CCN)C(=O)N[C@@H](CCCNC(=N)N)C(=O)N[C@@H](Cc2ccc(O)cc2)C(=O)O)CSSC1(C)C` [Example 54, Gua-Val-Pro-Ile-Ile-Tyr-Pen-Asn-Arg-Dab-Thr-^DDab-Lys-Cys-Dab-Arg-Tyr] (HELM PEPTIDE1{[CC(C)[C@H](NC(=N)N)C(=O)[*:2]].P.I.I.Y.[Pen].N.R.[Dab].T.[NCC[C@@H](N[*:1])C(=O)[*:2]].K.C.[Dab].R.Y}$PEPTIDE1,PEPTIDE1,6:R3-13:R3$$$V2.0): in data set [1], the “Hemolysis at 0.2 g/L” value worked out at 0%. The “Escherichia coli ATCC 25922 MIC” value in data set [2] (setting [5]) turned out to be 0.125 µg/mL. In data set [3] (setting [5]), the “Klebsiella pneumoniae SSI3010 MIC” value was determined as 0.125 µg/mL.

For the molecule `CC[C@H](C)[C@H](NC(=O)[C@@H](NC(=O)[C@@H]1C[C@@H](O)CN1C(=O)[C@@H](NC(=N)N)C(C)C)[C@@H](C)CC)C(=O)N[C@@H](Cc1ccc(O)cc1)C(=O)N[C@@H]1C(=O)N[C@@H](CC(N)=O)C(=O)N[C@@H](CCCNC(=N)N)C(=O)N[C@@H](CCN)C(=O)N[C@@H]([C@@H](C)O)C(=O)N[C@H](CCN)C(=O)N[C@@H](CCCCN)C(=O)N[C@H](C(=O)N[C@@H](CCN)C(=O)N[C@@H](CCCNC(=N)N)C(=O)N[C@@H](Cc2ccc(O)cc2)C(=O)O)CSSC1(C)C` [Example 56, Gua-Val-Hyp-Ile-Ile-Tyr-Pen-Asn-Arg-Dab-Thr-^DDab-Lys-Cys-Dab-Arg-Tyr] (HELM PEPTIDE1{[CC(C)[C@H](NC(=N)N)C(=O)[*:2]].[Hyp].I.I.Y.[Pen].N.R.[Dab].T.[NCC[C@@H](N[*:1])C(=O)[*:2]].K.C.[Dab].R.Y}$PEPTIDE1,PEPTIDE1,6:R3-13:R3$$$V2.0), the “Hemolysis at 0.2 g/L” value in data set [1] is given as 0%. The “Escherichia coli ATCC 25922 MIC” value in data set [2] (setting [5]) is 0.03125 µg/mL. Moreover, the “Klebsiella pneumoniae SSI3010 MIC” value in data set [3] (setting [5]) is 0.0625 µg/mL.

For the molecule `CC[C@H](C)[C@H](NC(=O)[C@@H](NC(=O)[C@@H]1C[C@@H](O)CN1C(=O)[C@@H](N)C(C)C)[C@@H](C)CC)C(=O)N[C@@H](Cc1ccc(O)cc1)C(=O)N[C@@H]1C(=O)N[C@@H](CC(N)=O)C(=O)N[C@@H](CCCNC(=N)N)C(=O)N[C@@H](CCN)C(=O)N[C@@H]([C@@H](C)O)C(=O)N[C@H](CCN)C(=O)N[C@@H](CCCCN)C(=O)N[C@H](C(=O)N[C@@H](CCN)C(=O)N[C@@H](CCCNC(N)=O)C(=O)N[C@@H](Cc2ccc(O)cc2)C(=O)O)CSSC1(C)C` [Example 73, Val-Hyp-Ile-Ile-Tyr-Pen-Asn-Arg-Dab-Thr-^DDab-Lys-Cys-Dab-Cit-Tyr] (HELM PEPTIDE1{V.[Hyp].I.I.Y.[Pen].N.R.[Dab].T.[NCC[C@@H](N[*:1])C(=O)[*:2]].K.C.[Dab].[Cit].Y}$PEPTIDE1,PEPTIDE1,6:R3-13:R3$$$V2.0), in data set [1], the “Hemolysis at 0.2 g/L” value is less than 1%. Moreover, the “Escherichia coli MCR-1 Af 45 MIC” value in data set [4] stood at 0.25 µg/mL. For the same molecule, in data set [2] (ATCC 25922), the “Escherichia coli ATCC 25922 MIC” value stood at 0.5 µg/mL. For the same molecule, the “Klebsiella pneumoniae SSI3010 MIC” value in data set [3] (SSI3010) turned out to be 0.5 µg/mL.

As to `CC[C@H](C)[C@H](NC(=O)[C@@H](NC(=O)[C@@H]1C[C@@H](O)CN1C(=O)[C@@H](N)C(C)C)[C@@H](C)CC)C(=O)N[C@@H](Cc1ccc(O)cc1)C(=O)N[C@@H]1C(=O)N[C@@H](CC(N)=O)C(=O)N[C@@H](CCCNC(=N)N)C(=O)N[C@@H](CCN)C(=O)N[C@@H]([C@@H](C)O)C(=O)N[C@H](CCN)C(=O)N[C@@H](CCCCN)C(=O)N[C@H](C(=O)N[C@@H](CCN)C(=O)N[C@@H](CCN)C(=O)N[C@@H](Cc2ccc(O)cc2)C(=O)O)CSSC1(C)C` [Example 74, Val-Hyp-Ile-Ile-Tyr-Pen-Asn-Arg-Dab-Thr-^DDab-Lys-Cys-Dab-Dab-Tyr] (HELM PEPTIDE1{V.[Hyp].I.I.Y.[Pen].N.R.[Dab].T.[NCC[C@@H](N[*:1])C(=O)[*:2]].K.C.[Dab].[Dab].Y}$PEPTIDE1,PEPTIDE1,6:R3-13:R3$$$V2.0), the “Hemolysis at 0.2 g/L” value in data set [1] is less than 1%. For the same molecule, the “Escherichia coli MCR-1 Af 45 MIC” value in data set [4] was 0.0625 µg/mL. The “Escherichia coli ATCC 25922 MIC” value in data set [2] (ATCC 25922) came to 0.125 µg/mL. The “Klebsiella pneumoniae SSI3010 MIC” value in data set [3] (SSI3010) turned out to be 0.25 µg/mL.

`CC[C@H](C)[C@H](NC(=O)[C@@H](NC(=O)[C@@H]1C[C@@H](O)CN1C(=O)[C@@H](N)C(C)C)[C@@H](C)CC)C(=O)N[C@@H](Cc1ccc(O)cc1)C(=O)N[C@@H]1C(=O)N[C@@H](CC(N)=O)C(=O)N[C@@H](CCCNC(=N)N)C(=O)N[C@@H](CCN)C(=O)N[C@@H](CO)C(=O)N[C@H](CCN)C(=O)N[C@@H](CCCCN)C(=O)N[C@H](C(=O)N[C@@H](CCN)C(=O)N[C@@H](CCCNC(=N)N)C(=O)N[C@@H](Cc2ccc(O)cc2)C(=O)O)CSSC1(C)C` [Example 75, Val-Hyp-Ile-Ile-Tyr-Pen-Asn-Arg-Dab-Ser-^DDab-Lys-Cys-Dab-Arg-Tyr] (HELM PEPTIDE1{V.[Hyp].I.I.Y.[Pen].N.R.[Dab].S.[NCC[C@@H](N[*:1])C(=O)[*:2]].K.C.[Dab].R.Y}$PEPTIDE1,PEPTIDE1,6:R3-13:R3$$$V2.0): the “Hemolysis at 0.2 g/L” value in data set [1] was less than 1%. Also, the “Escherichia coli MCR-1 Af 45 MIC” value in data set [4] is 0.0625 µg/mL. Also, the “Escherichia coli ATCC 25922 MIC” value in data set [2] (ATCC 25922) is 0.0625 µg/mL. Besides, the “Klebsiella pneumoniae SSI3010 MIC” value in data set [3] (SSI3010) was 0.125 µg/mL.

The values above are taken from US20240228555A9, “ANTIMICROBIAL PEPTIDOMIMETICS” (Basilea Pharmaceutica International AG, Allschwil, priority 2020, published 2024).
